# US9657015B2, “Substituted bicyclic dihydropyrimidinones and their use as inhibitors of neutrophil elastase activity” (Boehringer Ingelheim International GmbH, priority 2014, dated 2017)
# Assays:
# cytochrome P450 2C8 = cytochrome P450 2C8 (Homo sapiens (Human), UniProt P10632); assay: Cytochrome P450 2C8 inhibition; format: in vitro ADME; details: human liver microsomes, Amodiaquine deethylation, 37° C.
# From the text: Assay for Determination of Cytochrome P450 2C8 Inhibition
# cytochrome P450 2C19 = cytochrome P450 2C19 (Homo sapiens (Human), UniProt P33261); assay: Cytochrome P450 2C19 inhibition; format: in vitro ADME; details: human liver microsomes, (S)-Mephenytoin hydroxylation, 37° C.
# From the text: Assay for Determination of Cytochrome P450 2C19 Inhibition
# [1] = Metabolic stability with human liver microsomes; format: in vitro ADME; details: pH 7.6; pooled human liver microsomes, 37° C., 1 μM test compound, 1 mg/ml microsomal protein, NADPH; read-out: t1/2 INVITRO
# cytochrome P450 2C9 = cytochrome P450 2C9 (Homo sapiens (Human), UniProt P11712); assay: Cytochrome P450 2C9 inhibition; format: in vitro ADME; details: human liver microsomes, Diclofenac hydroxylation, 37° C.
# From the text: Assay for Determination of Cytochrome P450 2C9 Inhibition
# [2] = Aqueous solubility (Shaked Flask Method); format: physicochemical; details: aqueous buffer, thermodynamic from solid, pH 6.8 (McIlvaine buffer)
# Protocol: Assay for Determination of Aqueous Solubility (“Shaked Flask Method”)
# Saturated solutions are prepared in well plates by adding an appropriate volume of selected aqueous media (typically in the range of 0.25-1.5 ml) into each well which contains a known quantity of solid drug substance (typically in the range 0.5-5.0 mg). The wells are shaken or stirred for a predefined time period (typically in a range of 2-24 h) and then filtered using appropriate filter membranes (typically PTFE-filters with 0.45 μm pore size). Filter absorption is avoided by discarding the first few drops of filtrate. The amount of dissolved drug substance is determined by UV spectroscopy or by HPLC with UV-detection. In addition, the pH of the aqueous saturated solution is measured using a glass-electrode pH meter.
# [3] = Aqueous solubility (High Throughput Method); format: physicochemical; details: McIlvaine buffer pH 6.8, 2.5% DMSO, 24 h shaking; for solubility at 24 h: McIlvaine buffer pH 6.8 with 2.5% DMSO, aqueous buffer, kinetic from dmso stock
# Protocol: Assay for Determination of Aqueous Solubility (“High Throughput Method”)
# Starting from a 10 mM DMSO stock solution, aliquots are diluted with acetonitrile/water (1/1) and McIlvaine buffer pH 6.8, respectively. After 24 h of shaking, the solutions or suspensions are filtered and analyzed by LC-UV. The amount dissolved in buffer is compared to the amount dissolved in the acetonitrile/water (1/1) solution. Solubility is measured from 0.001 to 0.125 mg/ml at a DMSO concentration of 2.5%. If more than 90% of the compound is dissolved in buffer, the value is marked with “>”.
# [4] = Drug transport across human Caco-2 cells; format: in vitro ADME; details: human, Caco-2 monolayers, pH 7.2, 37° C.; for Papp A→B at 10 µM: apical-to-basal, read-out: PEAB; for Papp B→A at 10 µM: basal-to-apical, read-out: PEBA
# From the text: (§1) Assay for Determination of Drug Transport Across Human Caco-2 Cells
# (§2) The assay provides information on the potential of a compound to pass the cell membrane, on the extent of oral absorption as well as on whether the compound is actively transported by uptake and/or efflux transporters. For the measurement of permeability across polarized, confluent human cancer colon carcinoma cells 2 (Caco-2) cell monolayers grown on permeable filter supports are used as the in vitro absorption model.
# (§3) Apparent permeability coefficients (PE) of the compounds across the Caco-2 monolayers are measured (pH 7.2, 37° C.) in apical-to-basal (AB) (absorptive) and basal-to-apical (BA) (secretory) transport direction. AB permeability (PEAB) represents drug absorption from the intestine into the blood and BA permeability (PEBA) drug secretion from the blood back into the intestine via both passive permeability as well as active transport mechanisms mediated by efflux and uptake transporters that are expressed on the Caco-2 cells. The compounds are assigned to permeability/absorption classes by comparison of the AB permeabilities with the AB permeabilities of reference compounds with known in vitro permeability and oral absorption in the human. Identical or similar permeabilities in both transport directions indicate passive permeation, vectorial permeability points to additional active transport mechanisms. […] Active transport is concentration-dependently saturable.
# (§4) Caco-2 cells (1-2*10^5 cells/cm^2 area) are seeded on filter inserts (Costar transwell polycarbonate or PET filters, 0.4 μm pore size) and cultured (DMEM) for 10 to 25 days. Compounds are dissolved in appropriate solvent (like DMSO, 1-20 mM stock solutions). Stock solutions are diluted with HTP-4 buffer (128.13 mM NaCl, 5.36 mM KCl, 1 mM MgSO4, 1.8 mM CaCl2, 4.17 mM NaHCO3, 1.19 mM Na2HPO4×7H2O, 0.41 mM NaH2PO4×H2O, 15 mM HEPES, 20 mM glucose, pH 7.2) to prepare the transport solutions (typically 10 μM compound, final DMSO<=0.5%). The transport solution (TL) is applied to the apical or basolateral donor side for measuring A-B or B-A permeability (3 filter replicates), respectively. The receiver side contains HTP-4 buffer supplemented with 2% BSA. Samples are collected at the start and end of experiment from the donor and at various time intervals for up to 2 hours also from the receiver side for concentration measurement by LC-MS/MS or scintillation counting. Sampled receiver volumes are replaced with fresh receiver solution.
# (§5) The apparent permeability coefficients (PEAB and PEBA) of selected compounds in the Caco-2 drug transport assay described above are listed in Table 9.
# [5] = target: neutrophil elastase in human plasma (Homo sapiens (Human), UniProt P08246); assay: Neutrophil elastase inhibitory activity in human plasma; format: biochemical; details: human plasma assay (zymosan-stimulated blood plasma), substrate 250 μM, pH 7.5
# [6] = target: Human neutrophil elastase (Homo sapiens (Human), UniProt P08246); assay: Human Neutrophil Elastase Assay; format: biochemical; details: substrate MeOSuc-Ala-Ala-Pro-Val-AMC 250 μM, pH 7.5, room temperature
# [7] = Metabolic stability with human hepatocytes; format: in vitro ADME; details: human hepatocyte suspension (typically cryopreserved), 1 μM test compound, six hours, scaled with well stirred model
# Protocol: Assay for the Determination of Metabolic Stability with Human Hepatocytes
# The metabolic degradation of the test compound is assayed in a human hepatocyte suspension. Human hepatocytes (typically cryopreserved) are incubated in an appropriate buffer system (e.g. Dulbecco's modified eagle medium plus 3.5 μg glucagon/500 mL, 2.5 mg insulin/500 mL and 3.75 mg/500 mL hydrocortison) containing 5% species serum. Following a (typically) 30 min preincubation in an incubator (37° C., 10% CO2), 5 μl of test compound solution (80 μM; from 2 mM stock solution in DMSO diluted 1:25 with medium) are added into 395 μl hepatocyte suspension (cell density in the range 0.25-5*10^6 cells/mL, typically 1*10^6 cells/mL; final concentration of test compound 1 μM, final DMSO concentration 0.05%). The cells are incubated for six hours (incubator, orbital shaker) and samples (25 μl) are taken at 0, 0.5, 1, 2, 4 and 6 hours. Samples are transferred into acetonitrile and pelleted by centrifugation (5 min) The supernatant is transferred to a new 96-deepwell plate, evaporated under nitrogen and resuspended. The decline of parent compound is analyzed by LC-MS/MS.
# The intrinsic clearance CL_[…] is calculated as follows: CL_[…]=Dose/AUC=(C0/CD)/(AUD+clast/k)*1′000/60 (C0: initial concentration in the incubation [μM], CD: cell density of vital cells [10^6 cells/mL], AUD: area under the data [μM*h], clast: concentration of last data point [μM], k: slope of the regression line for parent decline [h^−1])
# The calculated in vitro hepatic intrinsic clearance can be scaled up to the intrinsic in vivo hepatic clearance and used to predict hepatic in vivo blood clearance (CL) by the use of a liver model (well stirred model): CL_[…]_INVIVO [ml/min/kg]=(CL_[…] [μL/min/10^6 cells]*hepatocellularity [10^6 cells/g liver]*liver factor [g/kg bodyweight])/1′000 CL [ml/min/kg]=CL_[…]_INVIVO [ml/min/kg]*hepatic blood flow [ml/min/kg]/(CL_[…]_INVIVO [ml/min/kg]+hepatic blood flow [ml/min/kg]) Qh [%]=CL [ml/min/kg]/hepatic blood flow [ml/min/kg]) (Hepatocellularity, human: 120*10^6 cells/g liver; liver factor, human: 25.7 g/kg bodyweight; blood flow, human: 21 ml/(min*kg))
# Caco-2 cells = assay: Drug transport across human Caco-2 cells; format: in vitro ADME; details: Caco-2 monolayers, pH 7.2, 37° C.; for PEAB: apical-to-basal; for PEBA: basal-to-apical
# From the text: as §1, §2, §3, §4, §5
# cytochrome P450 2C9, sequence (P11712 whole entry): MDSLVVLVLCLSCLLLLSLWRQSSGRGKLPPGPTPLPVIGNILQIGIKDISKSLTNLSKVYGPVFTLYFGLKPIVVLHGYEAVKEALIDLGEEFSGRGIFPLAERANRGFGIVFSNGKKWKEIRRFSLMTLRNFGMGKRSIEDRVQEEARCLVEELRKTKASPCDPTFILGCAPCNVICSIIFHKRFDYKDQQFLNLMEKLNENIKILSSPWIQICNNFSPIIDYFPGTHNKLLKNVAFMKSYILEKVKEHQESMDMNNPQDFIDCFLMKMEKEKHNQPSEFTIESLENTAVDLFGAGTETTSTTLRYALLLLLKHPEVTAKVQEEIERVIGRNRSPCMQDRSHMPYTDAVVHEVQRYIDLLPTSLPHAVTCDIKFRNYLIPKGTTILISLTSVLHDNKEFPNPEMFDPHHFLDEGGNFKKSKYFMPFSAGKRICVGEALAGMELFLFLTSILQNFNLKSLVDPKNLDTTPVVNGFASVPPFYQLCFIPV
# cytochrome P450 2C19, sequence (P33261 whole entry): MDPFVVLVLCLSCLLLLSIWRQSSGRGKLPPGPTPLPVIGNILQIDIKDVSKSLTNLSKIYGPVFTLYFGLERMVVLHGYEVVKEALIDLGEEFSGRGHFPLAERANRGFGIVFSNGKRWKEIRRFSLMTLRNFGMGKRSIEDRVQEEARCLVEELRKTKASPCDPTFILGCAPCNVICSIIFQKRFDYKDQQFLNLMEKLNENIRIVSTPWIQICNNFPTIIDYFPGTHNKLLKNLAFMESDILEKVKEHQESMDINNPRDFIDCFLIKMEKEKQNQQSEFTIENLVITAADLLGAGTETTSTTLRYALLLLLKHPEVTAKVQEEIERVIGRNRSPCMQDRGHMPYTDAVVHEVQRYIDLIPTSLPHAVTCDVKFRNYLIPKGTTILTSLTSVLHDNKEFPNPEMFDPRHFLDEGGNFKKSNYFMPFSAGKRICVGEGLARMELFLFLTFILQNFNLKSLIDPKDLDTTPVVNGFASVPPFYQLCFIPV
# cytochrome P450 2C8, sequence (P10632 whole entry): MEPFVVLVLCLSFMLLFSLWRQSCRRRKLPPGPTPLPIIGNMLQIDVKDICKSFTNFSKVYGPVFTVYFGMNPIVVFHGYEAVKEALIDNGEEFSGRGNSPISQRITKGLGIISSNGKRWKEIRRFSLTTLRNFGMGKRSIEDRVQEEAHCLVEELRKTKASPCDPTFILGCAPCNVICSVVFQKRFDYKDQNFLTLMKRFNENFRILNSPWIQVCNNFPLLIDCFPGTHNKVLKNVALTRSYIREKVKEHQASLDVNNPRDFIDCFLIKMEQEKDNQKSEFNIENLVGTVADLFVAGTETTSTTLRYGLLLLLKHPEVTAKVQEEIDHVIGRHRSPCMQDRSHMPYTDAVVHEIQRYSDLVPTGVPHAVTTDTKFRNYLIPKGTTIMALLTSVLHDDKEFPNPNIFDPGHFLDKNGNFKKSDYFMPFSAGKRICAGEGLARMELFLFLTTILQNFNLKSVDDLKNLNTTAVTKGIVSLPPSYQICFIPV
# neutrophil elastase in human plasma, sequence (P08246 30-247): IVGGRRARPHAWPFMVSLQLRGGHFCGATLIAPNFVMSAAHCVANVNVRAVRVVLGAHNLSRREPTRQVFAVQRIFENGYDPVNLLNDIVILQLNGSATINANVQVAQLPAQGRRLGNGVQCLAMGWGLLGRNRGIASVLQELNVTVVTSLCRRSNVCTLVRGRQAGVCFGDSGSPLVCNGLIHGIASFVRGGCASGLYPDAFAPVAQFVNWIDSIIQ
# Human neutrophil elastase, sequence (P08246 30-247): as above
IC50 (cytochrome P450 2C8) [nM],IC50 (cytochrome P450 2C19) [nM],half-life at 1 μM [1] [h],IC50 (cytochrome P450 2C9) [nM],solubility [2] [µg/mL],solubility at 24 h [3] [µg/mL],Papp A→B at 10 µM [4] [×10⁻⁶ cm/s],Papp B→A at 10 µM [4] [×10⁻⁶ cm/s],IC50 [5] [nM],IC50 [6] [nM],CLhep predicted at 1 μM [7] [mL/min/kg],Aqueous solubility [3] [µg/mL],PEAB (Caco-2 cells) [×10⁻⁶ cm/s],PEBA (Caco-2 cells) [×10⁻⁶ cm/s],SMILES
–,–,> 2.17,–,≥ 10,60,11,85,< 1,–,3,–,–,–,"CN1C(=O)N(c2cccc(C(F)(F)F)c2)C2=C(C(=O)NCC2)[C@H]1c1ccc(C#N)cc1-c1cnco1 [Example 30A, 4-[(4R)-3-Methyl-2,5-dioxo-1-[3-(trifluoromethyl)phenyl]-1H,2H,3H,4H,5H,6H,7H,8H-pyrido[4,3-d]pyrimidin-4-yl]-3-(1,3-oxazol-5-yl)-benzonitrile]"
–,–,–,–,–,–,–,–,1.4,1.1,–,76,12,110,CN1CCC2=C(C1=O)C(c1ccc(C#N)cc1-c1cncnc1)N(C)C(=O)N2c1cccc(C(F)(F)F)c1 (stereo not drawn) [Example 36.3]

# More lines, now with the values behind:
SMILES,IC50 (cytochrome P450 2C8) [nM],IC50 (cytochrome P450 2C19) [nM],half-life at 1 μM [1] [h],IC50 (cytochrome P450 2C9) [nM],solubility [2] [µg/mL],solubility at 24 h [3] [µg/mL],Papp A→B at 10 µM [4] [×10⁻⁶ cm/s],Papp B→A at 10 µM [4] [×10⁻⁶ cm/s],IC50 [5] [nM],IC50 [6] [nM],CLhep predicted at 1 μM [7] [mL/min/kg],Aqueous solubility [3] [µg/mL],PEAB (Caco-2 cells) [×10⁻⁶ cm/s],PEBA (Caco-2 cells) [×10⁻⁶ cm/s]
"N#Cc1ccc([C@H]2NC(=O)N(c3cccc(C(F)(F)F)c3)C3=C2C(=O)NCC3)cc1 [Example 1A, (R)-4-(2,5-Dioxo-1-(3-(trifluoromethyl)phenyl)-1,2,3,4,5,6,7,8-octahydropyrido[4,3-d]-pyrimidin-4-yl)benzonitrile]",> 50000,> 50000,> 2.17,> 50000,≥ 10,> 100,6.6,44,3.4,3.1,–,–,–,–
"CN1C(=O)N(c2cccc(C(F)(F)F)c2)C2=C(C(=O)NCC2)[C@H]1c1ccc(C#N)cc1-c1cnn(C)c1 [Example 31A, 3-(1-Methyl-1H-pyrazol-4-yl)-4-[(4R)-3-methyl-2,5-dioxo-1-[3-(trifluoromethyl)-phenyl]-1H,2H,3H,4H,5H,6H,7H,8H-pyrido[4,3-d]pyrimidin-4-yl]benzonitrile]",> 50000,> 50000,> 2.17,> 50000,≥ 10,11,12,100,< 1,< 1,3,–,–,–
"CN1C(=O)N(c2cccc(C(F)(F)F)c2)C2=C(C(=O)NCC2)C1c1ccc(C#N)cc1-c1cccnc1 (stereo not drawn) [Example 34, 4-{3-Methyl-2,5-dioxo-1-[3-(trifluoromethyl)phenyl]-1H,2H,3H,4H,5H,6H,7H,8H-pyrido[4,3-d]pyrimidin-4-yl}-3-(pyridin-3-yl)benzonitrile]",> 50000,> 50000,–,> 50000,–,–,11,79,1.6,< 1,4,–,–,–
CN1CCC2=C(C1=O)C(c1ccc(C#N)cc1-c1cccnc1)N(C)C(=O)N2c1cccc(C(F)(F)F)c1 (stereo not drawn) [Example 36.1],–,–,–,–,–,–,–,–,1.8,1.4,–,70,26,110
CN1CCC2=C(C1=O)C(c1ccc(C#N)cc1-c1ccncc1)N(C)C(=O)N2c1cccc(C(F)(F)F)c1 (stereo not drawn) [Example 36.2],–,–,–,–,–,–,–,–,1.8,1.3,–,70,25,150
